Values belong to the compound of their own block, whether it stands above or below them. Calls of active or inactive are those of the source. The calls are words filed in the database; no cut-off is given here.
Key:
[1] = Inhibition of TrxR (unknown origin) incubated for 2 hrs in presence of NADPH by DTNB assay; parameters: species or system Homo sapiens
[2] = tested on: HeLa; assay: Cytotoxicity against human HeLa cells incubated for 24 to 48 hrs by MTT assay; type: functional, cell-based
[3] = tested on: HepG2; assay: Cytotoxicity against human HepG2 cells incubated for 24 to 48 hrs by MTT assay; type: functional, cell-based
[4] = tested on: A549; assay: Cytotoxicity against human A549 cells incubated for 24 to 48 hrs by MTT assay; type: functional, cell-based
[5] = species: Homo sapiens; assay: Inhibition of TrxR (unknown origin) assessed as remaining activity at 50 uM incubated for 2 hrs in presence of NADPH by DTNB assay relative to control
[6] = Inhibition of TrxR in human A549 cells incubated for 24 hrs by endpoint insulin reduction assay; type: cell-based
[7] = species: Homo sapiens; assay: Inhibition of TrxR U498C mutant (unknown origin) incubated for 2 hrs in presence of NADPH by DTNB assay
[8] = GSH reactivity in TE buffer assessed as remaining concentration of compound incubated 1 to 4 hrs at 37 degreeC by HPLC analysis; type: physicochemical; settings: TE buffer with GSH, time 1-4 hrs, read-out: Stability
[9] = Cys reactivity in TE buffer assessed as remaining concentration of compound incubated 1 to 4 hrs at 37 degreeC by HPLC analysis; type: physicochemical; settings: TE buffer with cysteine, time 1-4 hrs, read-out: Activity
[10] = tested on: A549; assay: Induction of ROS accumulation in human A549 cells assessed as increase in fluorescence intensity incubated for 6 hrs by DCFH-DA/DHE staining based analysis; type: functional, cell-based; settings: dose 1-5 µM
[11] = tested on: A549; assay: Induction of oxidative stress in human A549 cells assessed as increase in GSSG levels at 1 to 5 uM incubated for 24 hrs by microplate reader analysis; type: functional, cell-based; settings: dose 1-5 µM
[12] = tested on: A549; assay: Induction of oxidative stress in human A549 cells assessed as decrease in GSH/GSSG ratio at 1 to 5 uM incubated for 24 hrs by microplate reader analysis; type: functional, cell-based; settings: dose 1-5 µM
[13] = tested on: A549; assay: Induction of oxidative stress in human A549 cells assessed as decrease in intracellular total thiol levels at 5 uM incubated for 24 hrs by DTNB titration based microplate reader analysis relative to control; type: functional; parameters: scale not given: the % may be the effect or the level left
[14] = tested on: A549; assay: Induction of apoptosis in human A549 cells assessed as increase in blue fluorescence at 1 to 5 uM incubated for 24 hrs by Hoechst 33342 staining based fluorescence microscopic analysis; type: functional, cell-based; settings: dose 1-5 µM
[15] = tested on: A549; assay: Induction of apoptosis in human A549 cells assessed as increase in caspase 3 activation incubated for 24 hrs by colorimetric assay; type: functional, cell-based; settings: dose 1-5 µM
[16] = tested on: A549; assay: Induction of apoptosis in human A549 cells assessed as apoptotic cell count incubated for 6 hrs by annexin V-FITC and PI staining based flow cytometric analysis; type: functional; settings: dose 1-5 µM
[17] = tested on: A549; assay: Induction of apoptosis in human A549 cells assessed as decrease in Bcl-2 protein expression at 2 to 5 uM incubated for 24 hrs by Western blot analysis; type: functional, cell-based; settings: dose 2-5 µM
[18] = tested on: A549; assay: Induction of apoptosis in human A549 cells assessed as increase in Bax protein expression at 2 to 5 uM incubated for 24 hrs by Western blot analysis; type: functional, cell-based; settings: dose 2-5 µM
[19] = tested on: A549; assay: Inhibition of TrxR in human A549 cells assessed as decrease in green fluorescence intensity incubated for 24 hrs by TRFS-green staining based fluorescent microscopic analysis; type: cell-based; settings: dose 1-5 µM
[20] = tested on: A549; assay: Induction of apoptosis in human A549 cells assessed as conversion of caspase 3 to cleaved caspase 3 at 2 to 5 uM incubated for 24 hrs by Western blot analysis; type: functional, cell-based; settings: dose 2-5 µM
[21] = tested on: A549; assay: Induction of oxidative stress in human A549 cells assessed as activation of ERK pathway by measuring change in protein level incubated for 24 hrs; type: functional, cell-based
[22] = tested on: A549; assay: Inhibition of colony formation in human A549 cells assessed as decrease in number of colonies incubated for 1 day in 5% CO2 at 37 degC followed by replacement with fresh culture medium for every 2 days and measured after 10 days by crystal violet staining based analysis; type: functional, cell-based; settings: dose 0.25-0.5 µM
[23] = Cytotoxicity against human LO2 cells assessed as cell viability at 1 to 20 uM incubated for 24 hrs by MTT assay; type: toxicity, cell-based, L02
[24] = tested on: A549; assay: Antitumor activity against human A549 cells xenografted in male BALB/c nude mouse assessed as tumor growth inhibition at 3 to 6 mg/kg, ip administrated for every 3 days and measured after 21 days relative to control; type: functional; settings: dose 3-6 mg/kg, time 21 day
[25] = tested on: A549; assay: Antitumor activity against ip dosed human A549 cells xenografted in male BALB/c nude mouse assessed as tumor size administered and measured every 3 days for 21 days; type: functional, organism-based; settings: dose 3-6 mg/kg, time 21.0 day
[26] = tested on: A549; assay: Antitumor activity against ip dosed human A549 cells xenografted in male BALB/c nude mouse assessed as tumor weight administered and measured every 3 days for 21 days; type: functional, organism-based; settings: dose 3-6 mg/kg, time 21.0 day
[27] = Toxicity in male BALB/c nude mouse xenografted with human A549 cells assessed as effect on body weight 3 to 6 mg/kg, ip administered and measured every 3 days for 21 days; type: organism-based; settings: in vivo, 504 h, dose 3-6 mg/kg, time 21 day
[28] = Half life in Sprague-Dawley rat at 10 mg/kg, po measured up to 24 hrs by LC-MS/MS analysis; type: ADME, organism-based; settings: in vivo
[29] = Tmax in Sprague-Dawley rat at 10 mg/kg, po measured up to 24 hrs by LC-MS/MS analysis; type: ADME, organism-based; settings: in vivo
[30] = AUC (0 to 24 hrs) in Sprague-Dawley rat at 10 mg/kg, po measured up to 24 hrs by LC-MS/MS analysis; type: ADME, organism-based; settings: in vivo
[31] = Toxicity in male BALB/c nude mouse xenografted with human A549 cells assessed as effect on heart at 3 to 6 mg/kg, ip administered for 21 days; type: organism-based; settings: in vivo, 504 h, dose 3-6 mg/kg, time 21 day
[32] = Toxicity in male BALB/c nude mouse xenografted with human A549 cells assessed as effect on liver at 3 to 6 mg/kg, ip administered for 21 days; type: organism-based; settings: in vivo, 504 h, dose 3-6 mg/kg, time 21 day
[33] = Toxicity in male BALB/c nude mouse xenografted with human A549 cells assessed as effect on lung at 3 to 6 mg/kg, ip administered for 21 days; type: organism-based; settings: in vivo, 504 h, dose 3-6 mg/kg, time 21 day
[34] = Toxicity in male BALB/c nude mouse xenografted with human A549 cells assessed as effect on kidney at 3 to 6 mg/kg, ip administered for 21 days; type: organism-based; settings: in vivo, 504 h, dose 3-6 mg/kg, time 21 day
[35] = Toxicity in male BALB/c nude mouse xenografted with human A549 cells assessed as effect on spleen at 3 to 6 mg/kg, ip administered for 21 days; type: organism-based; settings: in vivo, 504 h, dose 3-6 mg/kg, time 21 day
[36] = tested on: A549; assay: Cytotoxicity against human A549 cells assessed as cell viability at 1 to 20 uM cotreated with BSO incubated for 24 hrs by MTT assay; type: functional, cell-based; settings: dose 1-20 µM
[37] = tested on: A549; assay: Cytotoxicity against human A549 cells assessed as cell viability at 1 to 20 uM cotreated with NAC incubated for 24 hrs by MTT assay; type: functional, cell-based; settings: dose 1-20 µM
[38] = tested on: HeLa; assay: Cytotoxicity against human HeLa cells harboring shNT-negative control assessed as cell viability at 1 to 5 uM incubated for 48 hrs by MTT assay; type: functional, cell-based; settings: dose 1-5 µM
[39] = tested on: HeLa; assay: Cytotoxicity against human HeLa cells harboring shTrxR1 assessed as cell viability at 1 to 5 uM incubated for 48 hrs by MTT assay; type: functional, cell-based; settings: dose 1-5 µM
[40] = tested on: A549; assay: Induction of apoptosis in human A549 cells assessed as small and condensed nuclei at 1 to 5 uM incubated for 24 hrs by Hoechst 33342 staining based fluorescence microscopic analysis; type: functional, cell-based; settings: dose 1-5 µM

Structure (SMILES): COc1ccc2c(c[n+](C)c3c4cc5c(cc4ccc23)OCO5)c1OC [CHELERYTHRINE CHLORIDE]
IC50 [1]: 14.9 µM | IC50 [2]: 9.6 µM | IC50 [3]: 8.3 µM | IC50 [4]: 8 µM

Structure (SMILES): C[n+]1cc2ccccc2c2ccc3ccccc3c21
IC50 [2]: 5.2 µM | IC50 [3]: 5.4 µM | IC50 [4]: 7.3 µM | Activity [5]: 64%

Structure (SMILES): Cc1ccc2c(c1)c1ccccc1c[n+]2C
IC50 [1]: > 50 µM | IC50 [2]: 12.3 µM | IC50 [3]: 15 µM | IC50 [4]: 18.5 µM

Structure (SMILES): COc1ccc2ncc3ccccc3c2c1
IC50 [1]: > 50 µM | IC50 [2]: > 50 µM | IC50 [3]: > 50 µM | IC50 [4]: > 50 µM

Structure (SMILES): c1ccc2c(c1)cnc1ccccc12 [PHENANTHRIDINE]
IC50 [1]: > 50 µM | IC50 [2]: > 50 µM | IC50 [3]: > 50 µM | IC50 [4]: > 50 µM

Structure (SMILES): C[n+]1cc2ccccc2c2ccccc21
IC50 [1]: > 50 µM | IC50 [2]: 28 µM | IC50 [3]: 32.3 µM | IC50 [4]: 35.8 µM

Structure (SMILES): C[n+]1cc2c3c(ccc2c2ccc4cc5c(cc4c21)OCO5)OCO3 [SANGUINARIUM CHLORIDE]
IC50 [1]: 23 µM | IC50 [2]: 2.4 µM | IC50 [3]: 2.6 µM | IC50 [4]: 6.9 µM

Structure (SMILES): COc1cc2c(c(OC)c1OC)c1ccccc1c[n+]2C
IC50 [1]: > 50 µM | IC50 [2]: 22.5 µM | IC50 [3]: 21.9 µM | IC50 [4]: 16.9 µM

Structure (SMILES): Cc1ccc2ncc3ccccc3c2c1
IC50 [1]: > 50 µM | IC50 [2]: > 50 µM | IC50 [3]: > 50 µM | IC50 [4]: > 50 µM

Structure (SMILES): COc1cc(OC)c2c3ccccc3c[n+](C)c2c1.[I-]
IC50 [1]: 10.2 µM | IC50 [2]: 3.4 µM | IC50 [3]: 5 µM | IC50 [4]: 2.1 µM | inhibition [7]: Active; Minimal Inhibition Was Observed | remaining at 50 µM [8]: 94% | remaining at 50 µM [9]: 102% | Activity [10]: Dose-dependent-effect | Activity [11]: Active | Activity [12]: inactive | Activity [13]: ~50% | Activity [14]: Active | Activity [15]: Dose-dependent-effect | Activity [16]: Dose-dependent-effect | Activity [17]: Dose-dependent-effect | Activity [18]: Dose-dependent-effect | IC50 [6]: 3.94 µM | inhibition [19]: Dose-dependent-effect | Activity [20]: Dose-dependent-effect | Activity [21]: Active | inhibition [22]: Dose-dependent-effect | IC50 at 24 h [23]: > 20 µM | TGI [24]: 65.49% | Activity [25]: Dose-dependent-effect | Activity [26]: Dose-dependent-effect | Activity [27]: Non-toxic | half-life [28]: 2.58 h | Tmax [29]: 2 h | AUC [30]: 1060 ng·h/mL | Activity [31]: Non-toxic | Activity [32]: Non-toxic | Activity [33]: Non-toxic | Activity [34]: Non-toxic | Activity [35]: Non-toxic | Activity [36]: Active | Activity [37]: inactive | Activity [38]: Active | Activity [39]: Active; Compound Exhibited Increased Sensitivity Compared To Hela-Shnt Cells (Negative Control) | Activity [40]: Active

Structure (SMILES): C[n+]1cc2ccccc2c2cc(F)ccc21
IC50 [1]: > 50 µM | IC50 [2]: 31.4 µM | IC50 [3]: 34.7 µM | IC50 [4]: > 50 µM

Structure (SMILES): Fc1ccc2ncc3ccccc3c2c1
IC50 [1]: > 50 µM | IC50 [2]: > 50 µM | IC50 [3]: > 50 µM | IC50 [4]: > 50 µM

Further lines, with some results ahead:

IC50 [1]: > 50 µM
Structure (SMILES): COc1cc2ncc3ccccc3c2c(OC)c1OC
IC50 [2]: > 50 µM | IC50 [3]: > 50 µM | IC50 [4]: > 50 µM

IC50 [1]: > 50 µM
Structure (SMILES): COc1cc(OC)c2c(c1)ncc1ccccc12
IC50 [2]: > 50 µM | IC50 [3]: > 50 µM | IC50 [4]: > 50 µM

Activity [5]: 93%
Structure (SMILES): c1ccc2c(c1)cnc1c3ccccc3ccc21
IC50 [2]: > 50 µM | IC50 [3]: > 50 µM | IC50 [4]: > 50 µM

IC50 [1]: > 50 µM
Structure (SMILES): COc1ccc2c(c1)c1ccccc1c[n+]2C
IC50 [2]: 19.5 µM | IC50 [3]: 19.5 µM | IC50 [4]: 17.6 µM

IC50 [1]: 38.2 µM | IC50 [6]: 12.2 µM
Structure (SMILES): COc1cc2c[n+](C)c3c4cc5c(cc4ccc3c2cc1OC)OCO5 [NITIDINE CHLORIDE]
IC50 [2]: 1.7 µM | IC50 [3]: 1.8 µM | IC50 [4]: 4 µM

Activity [5]: 97%
Structure (SMILES): CN1Cc2ccccc2-c2ccc3ccccc3c21
IC50 [2]: > 50 µM | IC50 [3]: > 50 µM | IC50 [4]: > 50 µM

Source: ChEMBL document CHEMBL6182868, “Structural simplification of quaternary benzophenanthridine alkaloids generating a candidate for the treatment of non-small cell lung cancer” (Eur J Med Chem, 2025)
